Laboratory results reported in patent publication US20230059009A1, “INHIBITORS OF LIN28 AND METHODS OF USE THEREOF” (The Regents of the University of California, priority 2019, published 2023).
Entries after “also recorded” stand apart in the source; their conditions may differ.

How the values were obtained:
[1] = Tolerability / MTD in healthy C57BL/6 mice
Description: Next, the tumor suppressive effect of LN1632 in vivo was investigated. The maximum tolerated dose (MTD) was evaluated in healthy female C57Bl/6 mice.

[2] = tested on: AML pt #13 cells; assay: Engraftment of ex vivo treated primary AML pt #13 cells in NSGS; parameters: species or system NSGS mice; settings: ex vivo treatment 120 μM for 72 h, 12 weeks
[3] = target: T1, PRPF31 (Homo sapiens, UniProt Q8WWY3); assay: MDA-MB-231 TNBC cell numbers with PRPF31 overexpression or silencing; type: cell-based; parameters: mGFP (C); host or cells: MDA-MB-231 TNBC cells; settings: 100 μM LN1632
T1 sequence (Q8WWY3 1-499): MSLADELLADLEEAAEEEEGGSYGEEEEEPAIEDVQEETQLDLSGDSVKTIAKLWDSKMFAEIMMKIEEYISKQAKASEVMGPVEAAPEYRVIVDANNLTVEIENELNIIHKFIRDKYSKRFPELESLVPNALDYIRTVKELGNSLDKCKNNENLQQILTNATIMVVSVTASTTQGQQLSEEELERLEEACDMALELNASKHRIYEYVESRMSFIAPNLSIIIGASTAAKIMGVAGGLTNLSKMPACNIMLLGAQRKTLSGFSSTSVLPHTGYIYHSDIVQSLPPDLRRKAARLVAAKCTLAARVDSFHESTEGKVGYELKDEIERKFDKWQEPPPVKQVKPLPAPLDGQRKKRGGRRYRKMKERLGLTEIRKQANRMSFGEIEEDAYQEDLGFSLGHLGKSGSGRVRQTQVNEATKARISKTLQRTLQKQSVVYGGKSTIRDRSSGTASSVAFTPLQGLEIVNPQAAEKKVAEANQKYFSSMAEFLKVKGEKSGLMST
From the text: MDA-MB-231 TNBC cells were used to evaluate whether LN1632 targets PRPF31.

[4] = target: T1, PRPF31; assay: MS-CETSA and IP-MS target engagement; type: binding; parameters: endogenous in cells; host or cells: Kasumi-1 cell lysate
Description: Mass spectrometry cellular thermal shift assay (MS-CETSA, FIG. 12A) as described in (75), and immunoprecipitation using biotinylated LN1632 (FIG. 12B) were performed. […] PRPF31 is recruited to introns where its highly conserved Nop-domain coordinates the U4 snRNA—15.5K protein interaction. Subsequently, PRPF31 stabilizes the U4/U6.U5 tri-snRNP by concomitantly interacting with PRPF6 and induces the transition of the spliceosomal complex to the activated state (78).

CC(=O)N(C)c1cccc(-c2ccc3nnc(C)n3n2)c1 [LN1632]
Weight gain ([1]; 100 mg/kg daily +12 d then every other day +9 d, at +21 d): normal weight gain; also recorded: no significant changes in weight gain | Complete blood count (CBC) profile ([1]; 100 mg/kg daily for +12 d then every other day for +9 d, female C57Bl/6 mice): normal complete blood count (CBC) profile, without any leukopenia or thrombocytopenia, only mild anemia | Tolerability ([1]; 100 mg/kg every other day for 21 d, healthy C57BL/6 mice): non-toxic, well tolerated | Tolerability (MTD evaluation) ([1]; mouse, in vivo): well tolerated | AML repopulation capability in vivo [2]: inhibited AML repopulation capability in vivo | Anti-proliferative / pro-apoptotic effect under PRPF31 overexpression or shRNA silencing [3]: rescued anti-proliferative effects of LN1632; also recorded: abrogated pro-apoptotic effects of LN1632 | Interaction partners by MS-CETSA and immunoprecipitation [4]: interacts with additional RNA-binding proteins, in particular pre-mRNA processing factor 31 | Tm shift (MS-CETSA) ([4]; Kasumi-1 cell lysate): induces Tm shift of endogenous PRPF31 | IP-MS capture with biotinylated LN1632, competitive elution ([4]; n=3): captures PRPF31
